Data from patent US20250171420A1 (Monte Rosa Therapeutics, Inc., priority 2022, published 2025).

Key:
CW2 cell line = assay: Growth inhibition, CyQUANT Direct Cell Proliferation Assay, CW2; assay type: cell-based; conditions: Homo sapiens, CW-2; CW2, 120 to 168 hours; read-out: CW2 GI50
Summary of the method: (§1)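 Cells seeded 300 to 1,800 per well, day-0 CyQUANT Direct read after overnight attachment; 9-point 3-fold dilutions from 30 μM top concentration, 120 to 168 h exposure, 0.3% DMSO control. Fluorescence Ex/Em 480/520 nm; growth inhibition normalised to day-0 and untreated day-N signals, GI50 at 50% of untreated control.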

[1] = Oral pharmacokinetics in male BALB/c mice; assay type: in vivo; conditions: mouse, PO 10 mg/kg, plasma, mean ± SD
Description: Male BALB/c mice were administered a discrete, oral (PO) dose of Compound 288, Compound 335, Compound 102, or Compound 303 at 10 mg/kg; all mice were fasted except for mice that were dosed with Compound 288. Male BALB/c mice were fasted overnight and administered a cassette dose, PO dose of Compound 303 and other compounds at 5 mg/kg per compound.
Blood samples were collected serially from three animals/time-point following PO administration of the test compounds to the mice and placed in tubes containing K2EDTA. The blood samples were centrifuged, and the aliquots of the resulting plasma stored frozen at −60 to −90° C.
The plasma samples were analyzed by LC-MS/MS to determine concentrations of the test compounds. The in-life portion of the study and the bioanalysis of plasma samples was conducted at Wuxi (China).
The pharmacokinetic parameters for the tested compounds were calculated by non-compartmental analysis using Phoenix WinNonlin software.

CK1α = biological target: T1, CK1α (Homo sapiens, UniProt P48729); assay: CK1α NanoBit Assay (HiBiT-tagged CSNK1A1, HEK293 clonal lines); assay type: cell-based; conditions: HEK293 HiBiT-CSNK1A1/LgBiT cells, 24 h incubation
T1 construct: HEK293 clonal lines with CRISPR KI HiBiT tag on CSNK1A1
T1 sequence (P48729 whole entry): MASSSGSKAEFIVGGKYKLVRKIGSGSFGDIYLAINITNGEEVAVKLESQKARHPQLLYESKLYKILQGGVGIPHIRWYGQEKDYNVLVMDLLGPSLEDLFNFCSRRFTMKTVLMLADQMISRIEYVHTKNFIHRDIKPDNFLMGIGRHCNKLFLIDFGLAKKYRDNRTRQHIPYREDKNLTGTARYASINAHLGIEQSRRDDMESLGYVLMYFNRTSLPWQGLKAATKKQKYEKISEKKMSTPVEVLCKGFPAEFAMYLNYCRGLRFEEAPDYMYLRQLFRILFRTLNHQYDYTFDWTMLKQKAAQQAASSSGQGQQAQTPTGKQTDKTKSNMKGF
T1 sequence (Q96SW2 whole entry, further chain): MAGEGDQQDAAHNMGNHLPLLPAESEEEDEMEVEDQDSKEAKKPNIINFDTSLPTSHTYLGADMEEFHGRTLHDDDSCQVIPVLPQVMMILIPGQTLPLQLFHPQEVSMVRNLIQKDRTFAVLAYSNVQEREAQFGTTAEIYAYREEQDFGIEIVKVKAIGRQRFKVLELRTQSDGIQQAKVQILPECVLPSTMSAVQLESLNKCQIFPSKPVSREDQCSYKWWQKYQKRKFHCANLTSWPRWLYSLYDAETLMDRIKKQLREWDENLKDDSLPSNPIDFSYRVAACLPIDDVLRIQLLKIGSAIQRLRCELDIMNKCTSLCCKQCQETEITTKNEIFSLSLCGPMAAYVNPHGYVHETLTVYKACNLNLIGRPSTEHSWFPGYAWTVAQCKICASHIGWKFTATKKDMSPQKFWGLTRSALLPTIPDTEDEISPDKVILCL
T1 sequence (Q16531 2-1140 partner limits assumed): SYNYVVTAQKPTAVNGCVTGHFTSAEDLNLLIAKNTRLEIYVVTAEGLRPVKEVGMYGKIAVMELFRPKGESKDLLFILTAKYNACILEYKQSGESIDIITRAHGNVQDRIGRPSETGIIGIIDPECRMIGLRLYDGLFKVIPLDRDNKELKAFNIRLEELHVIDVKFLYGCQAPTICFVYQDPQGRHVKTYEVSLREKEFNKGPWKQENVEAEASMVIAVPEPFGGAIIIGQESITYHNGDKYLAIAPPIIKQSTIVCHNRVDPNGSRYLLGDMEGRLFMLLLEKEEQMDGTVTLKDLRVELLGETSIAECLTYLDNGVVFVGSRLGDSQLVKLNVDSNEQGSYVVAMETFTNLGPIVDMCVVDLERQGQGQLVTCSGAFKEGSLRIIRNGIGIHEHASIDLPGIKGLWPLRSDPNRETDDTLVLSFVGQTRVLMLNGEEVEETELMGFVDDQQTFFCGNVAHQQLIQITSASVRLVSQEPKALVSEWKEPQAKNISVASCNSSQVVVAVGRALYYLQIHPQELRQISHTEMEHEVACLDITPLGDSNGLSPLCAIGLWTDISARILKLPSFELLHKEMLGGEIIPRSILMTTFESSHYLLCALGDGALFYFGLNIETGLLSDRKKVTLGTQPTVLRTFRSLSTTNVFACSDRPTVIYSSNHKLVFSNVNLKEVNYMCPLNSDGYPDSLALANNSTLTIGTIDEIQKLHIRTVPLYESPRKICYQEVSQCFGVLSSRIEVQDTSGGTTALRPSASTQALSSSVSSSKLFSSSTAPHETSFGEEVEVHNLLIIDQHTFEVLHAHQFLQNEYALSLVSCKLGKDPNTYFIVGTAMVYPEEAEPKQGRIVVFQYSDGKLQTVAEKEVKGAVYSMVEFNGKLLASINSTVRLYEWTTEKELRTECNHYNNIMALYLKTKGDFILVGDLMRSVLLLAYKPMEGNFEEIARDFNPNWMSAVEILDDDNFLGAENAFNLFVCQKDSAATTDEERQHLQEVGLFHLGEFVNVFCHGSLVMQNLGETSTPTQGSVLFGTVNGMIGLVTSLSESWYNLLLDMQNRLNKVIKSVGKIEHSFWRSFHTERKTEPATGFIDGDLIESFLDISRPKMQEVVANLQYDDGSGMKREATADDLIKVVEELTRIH
Summary of the method: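 HEK293 clones carrying a CRISPR knock-in HiBiT tag on CSNK1A1 and stably expressing LgBiT are treated with compound for 24 hours at 37° C, 5% CO2, then read by luminescence. Response is normalized as 100*(S−N)/(P−N) against plate negative and positive controls, and DC50 values are derived.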

LS174T cell line = assay: Growth inhibition, CyQUANT Direct Cell Proliferation Assay, LS174T; assay type: cell-based; conditions: Homo sapiens, 120 to 168 hours, read-out: LS174T GI50
Summary of the method: as §1

LS180 cell line = assay: Growth inhibition, CyQUANT Direct Cell Proliferation Assay, LS180; assay type: cell-based; conditions: Homo sapiens; LS180, 120 to 168 hours; read-out: LS180 GI50
Summary of the method: as §1

SKCO1 cell line = assay: Growth inhibition, CyQUANT Direct Cell Proliferation Assay, SKCO1; assay type: cell-based; conditions: Homo sapiens, SK-CO-1; SKCO1, 120 to 168 hours; read-out: SKCO1 GI50
Summary of the method: as §1

GP2D cell line = assay: Growth inhibition, CyQUANT Direct Cell Proliferation Assay, GP2D; assay type: cell-based; conditions: GP2D, 120 to 168 hours; read-out: GP2D GI50
Summary of the method: as §1

C[C@@H]1Cc2ccccc2N1C(=O)Nc1ccc2c(c1)CN(C1CCC(=O)NC1=O)C2=O (stereo partly drawn) [Compound 102, (2R)—N-(2-(2,6-dioxopiperidin-3-yl)-1-oxoisoindolin-5-yl)-2-methylindoline-1-carboxamide]
GI50 (CW2 cell line): < 100 nM | AUC [1]: 1040 ± 245 ng·h/mL | AUC(0-t) [1]: 889 ± 218 ng·h/mL | Cmax [1]: 361 ± 142 ng/mL | Tmax [1]: 1.33 ± 0.58 h | DC50 (CK1α): < 0.1 µM | GI50 (LS174T cell line): 100 to 1000 nM | GI50 (LS180 cell line): 100 to 1000 nM | GI50 (SKCO1 cell line): < 100 nM | GI50 (GP2D cell line): 100 to 1000 nM
